In paper PMC12155096 (International Journal of Molecular Sciences, 2025):
Structures can show the parent of a compound that is named as a salt. Where two headings read alike, the source gives them in different places.

What was measured:
Test in all cases: biochemical
human CYP2D6 = human CYP2D6 (Homo sapiens, UniProt P10635); conditions: for AC50: CYP2D6 AC50 (half-maximal activity concentration)
human CYP2C19 = human CYP2C19 (Homo sapiens, UniProt P33261); conditions: for AC50: CYP2C19 AC50 (half-maximal activity concentration)
human CYP2C19, sequence (P33261 whole entry): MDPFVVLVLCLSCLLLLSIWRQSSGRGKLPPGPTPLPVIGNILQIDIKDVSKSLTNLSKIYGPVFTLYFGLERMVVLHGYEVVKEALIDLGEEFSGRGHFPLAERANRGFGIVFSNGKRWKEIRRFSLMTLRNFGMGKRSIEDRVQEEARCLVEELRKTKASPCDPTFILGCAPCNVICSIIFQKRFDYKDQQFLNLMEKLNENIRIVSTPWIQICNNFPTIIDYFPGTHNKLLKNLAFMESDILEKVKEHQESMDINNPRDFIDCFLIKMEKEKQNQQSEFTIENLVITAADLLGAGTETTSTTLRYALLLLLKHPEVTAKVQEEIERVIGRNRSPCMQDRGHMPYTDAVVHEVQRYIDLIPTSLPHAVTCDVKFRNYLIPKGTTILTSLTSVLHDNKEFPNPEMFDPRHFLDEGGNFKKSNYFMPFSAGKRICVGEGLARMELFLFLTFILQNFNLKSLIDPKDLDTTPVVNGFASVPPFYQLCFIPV

human CYP2C9 = human CYP2C9 (Homo sapiens, UniProt P11712)
human CYP2C9, sequence (P11712 whole entry): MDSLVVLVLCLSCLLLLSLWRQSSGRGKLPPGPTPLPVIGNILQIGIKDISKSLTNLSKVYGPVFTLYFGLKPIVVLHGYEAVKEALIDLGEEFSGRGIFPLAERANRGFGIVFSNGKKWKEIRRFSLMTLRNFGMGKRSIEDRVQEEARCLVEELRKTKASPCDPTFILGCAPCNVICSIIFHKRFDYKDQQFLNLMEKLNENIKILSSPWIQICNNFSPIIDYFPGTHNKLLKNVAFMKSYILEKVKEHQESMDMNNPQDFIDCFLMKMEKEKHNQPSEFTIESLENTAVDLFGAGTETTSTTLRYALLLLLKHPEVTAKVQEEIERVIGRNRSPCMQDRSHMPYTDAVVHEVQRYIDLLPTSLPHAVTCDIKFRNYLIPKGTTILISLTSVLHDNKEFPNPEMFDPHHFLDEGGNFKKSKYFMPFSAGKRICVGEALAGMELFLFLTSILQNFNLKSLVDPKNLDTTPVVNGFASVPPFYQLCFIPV

human CYP1A2 = target: T1, human CYP1A2 (Homo sapiens, UniProt P05177)
T1 sequence (P05177 1-516): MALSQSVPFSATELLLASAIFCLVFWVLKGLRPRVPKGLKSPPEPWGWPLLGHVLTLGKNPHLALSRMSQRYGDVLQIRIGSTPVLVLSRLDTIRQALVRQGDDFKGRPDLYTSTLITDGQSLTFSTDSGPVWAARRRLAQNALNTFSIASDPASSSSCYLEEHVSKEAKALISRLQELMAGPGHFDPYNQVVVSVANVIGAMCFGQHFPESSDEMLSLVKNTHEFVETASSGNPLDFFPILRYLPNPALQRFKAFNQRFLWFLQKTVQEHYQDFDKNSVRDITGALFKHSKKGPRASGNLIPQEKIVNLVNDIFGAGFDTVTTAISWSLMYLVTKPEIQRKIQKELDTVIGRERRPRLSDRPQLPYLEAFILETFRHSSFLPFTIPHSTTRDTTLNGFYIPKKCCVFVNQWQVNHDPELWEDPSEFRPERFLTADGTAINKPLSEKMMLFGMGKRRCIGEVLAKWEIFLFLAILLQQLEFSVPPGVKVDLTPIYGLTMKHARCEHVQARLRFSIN

[1] = CYP2D6 IC50 (half-maximal inhibitory concentration)
[2] = CYP2C19 IC50 (half-maximal inhibitory concentration)
[3] = CYP2C9 IC50 (half-maximal inhibitory concentration)
[4] = CYP1A2 IC50 (half-maximal inhibitory concentration)

human CYP2D6, sequence (P10635 whole entry): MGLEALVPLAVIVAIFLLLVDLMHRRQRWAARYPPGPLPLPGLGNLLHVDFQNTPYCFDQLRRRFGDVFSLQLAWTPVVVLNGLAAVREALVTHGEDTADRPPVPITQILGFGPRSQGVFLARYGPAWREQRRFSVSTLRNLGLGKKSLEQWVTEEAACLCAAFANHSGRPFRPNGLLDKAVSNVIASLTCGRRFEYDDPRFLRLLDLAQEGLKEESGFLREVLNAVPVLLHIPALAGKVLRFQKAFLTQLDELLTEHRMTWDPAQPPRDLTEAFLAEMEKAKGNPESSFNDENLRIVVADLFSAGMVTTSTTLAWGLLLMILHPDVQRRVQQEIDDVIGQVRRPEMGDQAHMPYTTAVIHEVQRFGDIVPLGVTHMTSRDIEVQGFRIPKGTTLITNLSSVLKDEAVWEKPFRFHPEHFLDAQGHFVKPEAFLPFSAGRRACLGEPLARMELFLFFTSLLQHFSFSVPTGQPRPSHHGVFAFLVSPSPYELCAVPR

Structure (SMILES) | IC50 (human CYP2D6; [1]) [µM] | IC50 (human CYP2C19; [2]) [µM] | IC50 (human CYP2C9; [3]) [µM] | IC50 (human CYP1A2; [4]) [µM] | other results
Cc1[nH]cnc1CN1CCc2c(c3ccccc3n2C)C1=O [Alosetron hydrochloride] | 10.8 | 27.8 | 1.66 | 0.89 | 
CC1=C(C(=O)OC(C)C)C(c2cccc([N+](=O)[O-])c2)C(C(=O)OC2CN(C(c3ccccc3)c3ccccc3)C2)=C(N)N1 (stereo not shown) [Azelnidipine] |  |  |  |  | IC50 (human CYP2D6): 13.2 ± 3.2 µM; IC50 (human CYP2C19): 2.43 ± 0.68 µM; IC50 (human CYP2C9): 1.56 ± 0.18 µM
CCOC(=O)[C@H](CCc1ccccc1)N[C@H]1CCc2ccccc2N(CC(=O)O)C1=O [Benazepril] | 29.2 | 6.84 | 7.32 | 14 | 
CC(Cc1cccc(C(F)(F)F)c1)NCCOC(=O)c1ccccc1 (stereo not shown) [Benfluorex hydrochloride] | 0.08 | 6.95 | 25.3 | 2.6 | 
COc1ccc2cc3[n+](cc2c1OC)CCc1cc2c(cc1-3)OCO2 [Berberine chloride] | 0.52 | 26.9 |  | 23.6 | 
CCCCC(=O)O[C@]1(C(=O)CO)[C@@H](C)C[C@H]2[C@@H]3CCC4=CC(=O)C=C[C@]4(C)[C@@]3(F)[C@@H](O)C[C@@]21C [Betamethasone valerate] | 39.1 | 31.1 | 17.4 |  | 
O=C1CC2(CCCC2)CC(=O)N1CCNCC1COc2ccccc2O1 (stereo not shown) [Binospirone mesylate] |  |  |  |  | IC50 (human CYP2D6): 0.29 ± 0.02 µM; IC50 (human CYP2C19): 8.77 ± 1.42 µM; IC50 (human CYP2C9): 23.5 ± 5.69 µM
Cc1cc2c(OCC(CNC(C)(C)C)OC(=O)c3ccccc3)cccc2[nH]1 (stereo not shown) [Bopindolol] |  |  |  |  | IC50 (human CYP2D6): 0.64 ± 0.04 µM; IC50 (human CYP2C19): 23.9 ± 13 µM; IC50 (human CYP2C9): 6.95 ± 0.8 µM
COc1ccc2c(c1OC)CN1CCc3cc4c(cc3[C@@H]1C2)OCO4 [Canadine] | 0.26 | 1.25 | 26.4 | 9.1 | 
COCCOC(=O)C1=C(C)NC(C)=C(C(=O)OC/C=C/c2ccccc2)C1c1cccc([N+](=O)[O-])c1 (stereo not shown) [Cilnidipine] | 29.2 | 1.75 | 0.21 | 15.6 | 
CC(C)(C)C(=O)C(Oc1ccc(Cl)cc1)n1ccnc1 (stereo not shown) [Climbazole] | 28.7 | 1.56 | 3.23 | 16.1 | 
CCCC(=O)O[C@]1(C(=O)CCl)[C@@H](C)C[C@H]2[C@@H]3CCC4=CC(=O)C=C[C@]4(C)[C@@]3(F)C(=O)C[C@@]21C [Clobetasone butyrate] | 7.77 | 8.43 | 17.6 |  | 
O=C(Nc1ccccc1)OCC(CN1CCCCC1)OC(=O)Nc1ccccc1 (stereo not shown) [Diperodon hydrochloride] | 0.36 | 7.12 | 20.8 |  | 
CCN(CC)CCOc1ccccc1C(=O)CCc1ccccc1 [Etafenone] |  |  |  |  | IC50 (human CYP2D6): 0.64 ± 0.08 µM; IC50 (human CYP2C19): 35.6 ± 11.4 µM; IC50 (human CYP1A2): 6.05 ± 1.51 µM
O=C(CN1CCN(Cc2ccc3c(c2)OCO3)CC1)N1c2ccccc2Sc2ccccc21 [Fenoverine] | 0.46 | 40.7 | 18.9 |  | 
O=C(OCC(O)CO)c1ccccc1Nc1ccnc2c(C(F)(F)F)cccc12 (stereo not shown) [Floctafenine] |  |  |  |  | IC50 (human CYP2D6): 23.6 ± 7.75 µM; IC50 (human CYP2C19): 0.35 µM; IC50 (human CYP2C9): 10.2 ± 0.69 µM; IC50 (human CYP1A2): 2.91 ± 0.17 µM
CN1CCN(CCC(=O)N2c3ccccc3Sc3ccc(C(F)(F)F)cc32)CC1 [Ftormetazine] | 0.14 | 27 |  | 29.2 | 
CC(COc1ccccc1)NC(C)C(O)c1ccc(O)cc1 (stereo not shown) [Isoxsuprine hydrochloride] | 0.55 | 7.99 | 14.9 | 16.1 | AC50 (human CYP2D6): 0.55 µM; AC50 (human CYP2C19): 7.99 µM; AC50 (human CYP2C9; CYP2C9 AC50 (half-maximal activity concentration)): 14.9 µM; AC50 (human CYP1A2; CYP1A2 AC50 (half-maximal activity concentration)): 16.1 µM
CN1CCC(=C2c3ccccc3CC(=O)c3sccc32)CC1 [Ketotifen] |  |  |  |  | AC50 (human CYP2D6): 2.2 µM; AC50 (human CYP2C19): 37.5 µM
COc1c2occc2c(OC)c2c(=O)cc(C)oc12 [Khellin] | 14.5 | 6.65 | 14.4 | 0.15 | 
CCOC(=O)C1=C(C)NC(C)=C(C(=O)OCC)C1c1ccccc1/C=C/C(=O)OC(C)(C)C [Lacidipine] | 15.7 | 6.72 | 1.29 | 23.9 | 
